From PubChem BioAssay AID1272 (The Scripps Research Institute Molecular Screening Center, 2008)
Active and inactive are the calls of the source. How the calls were made is not given here.

Target: Neuropeptide Y receptor type 2 (Homo sapiens) (UniProt P49146)
Assay: NPY-Y2 receptor antagonist potency, dose response, cell-based (AID 1272)
Conditions: NPY-Y2 expressing cells, antagonist inhibition read-out

Chain of Neuropeptide Y receptor type 2 (Homo sapiens) (P49146 whole entry, looked up): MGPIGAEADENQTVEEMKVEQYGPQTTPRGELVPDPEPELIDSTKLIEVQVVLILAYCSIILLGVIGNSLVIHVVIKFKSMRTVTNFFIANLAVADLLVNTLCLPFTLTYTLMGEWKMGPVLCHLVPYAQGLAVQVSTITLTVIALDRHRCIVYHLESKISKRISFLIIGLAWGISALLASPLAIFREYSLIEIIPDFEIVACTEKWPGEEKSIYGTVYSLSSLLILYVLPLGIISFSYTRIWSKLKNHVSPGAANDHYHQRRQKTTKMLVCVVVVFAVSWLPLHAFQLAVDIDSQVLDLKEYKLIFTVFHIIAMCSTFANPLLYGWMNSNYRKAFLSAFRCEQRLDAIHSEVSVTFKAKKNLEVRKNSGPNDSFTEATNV

IC50: < 35 µM (inactive)
Structure (SMILES): Cc1cccc(CSCCNC(=O)COc2ccc(Cl)cc2)c1
